Consider twelve compounds from patent US8889713B1, “N-substituted tetrahydroisoquinoline benzamides/benzene sulfonamides as anti-cancer agents” (Florida A&M University, priority 2013, dated 2014).

What all share (assay type): cell-based
The subject of experiment [1] is MCF-7 estrogen receptor-positive breast cancer cells. The experiment in a line: […]-GLO luminescent cell viability assay, MCF-7. The settings on record: Homo sapiens, MCF7, MCF-7, 72 h at 37° C., 5000 cells/well. The method, then: (§1) All the compounds were tested in the three cell lines. Different concentrations of compounds, ranging from about 0.01 nM to about 100,000 nM were delivered to […] cells per well, which were then incubated for three days at 37° C., followed by CTG assay.
(§2) In this assay, the number of viable cells in culture is determined based on the quantification of ATP present, which signals the presence of metabolically active cells. Damaged cells are not detected as the ATP leaked from these cells is quickly consumed by ATPases that are also released upon damage). The amount of ATP is determined using a system based on luciferase and D-luciferin resulting in light generation.
(§3) The cell lines were plated in 13, 96 well plates at a density of 5000 cells/well in total volumes of 50 μL in phenol-red free medium and incubated for overnight.
(§4) 25 μL of 40 nM estradiol should be added to all appropriate wells on the plate. […] 25 μL of stocks (containing the compounds to be tested, DMSO and phenol-red free medium) were added to cells and medium already on plate. 50 μL of medium were added to media wells, and 50 μL of mix (contain 32 mL DMSO+768 mL phenol-red free medium) to all vehicle control wells.
(§5) Luminescence results were read on TriLux Luminometer. The luminescent signal is proportional to the number of active cells present in culture. […] As a consequence, the number of metabolically active cells can be directly derived from the luminescent signal using a specific calibration curve. Data were expressed as percentage of untreated control (i.e. treatment value-blank/vehicle value blank), mean±SE for three replications.

For another experiment, the system named is Ishikawa cells. The experiment in a line: […]-GLO luminescent cell viability assay, Ishikawa. The note with it: Homo sapiens, 72 h at 37° C., 5000 cells/well. The method, then: as §1, §2, §3, §4, §5
Experiment [2] concerns MDA-MB-231 estrogen receptor-negative breast cancer cell line. The experiment in a line: […]-GLO luminescent cell viability assay, MDA-MB-231. The note with it: Homo sapiens, MDA-MB-231, 72 h at 37° C., 5000 cells/well. The method, then: as §1, §2, §3, §4, §5

≈ marks a conversion by molar mass, not a printed value.

With `CCc1ccc(C(=O)NN2CCc3c(cccc3OC)C2)cc1` [Redda-EVK-I-062, 4-Ethyl-N-(5-methoxy-3,4-dihydroisoquinolin-2(1H)-yl)benzamide], the IC50 stood at 7.38 µg/mL (≈ 23.8 µM) in experiment [1], 6.34 µg/mL (≈ 20.4 µM) in the experiment with Ishikawa cells and 10.5 µg/mL (≈ 33.7 µM) in experiment [2].
Taken in the same sequence, the figures for `CCc1ccc(C(=O)NN2CCc3ccc(OC)cc3C2)cc1` [Redda-EVK-I-074, 4-Ethyl-N-(7-methoxy-3,4-dihydroisoquinolin-2(1H)-yl)benzamide] were 0.25 µg/mL (≈ 0.805 µM), 0.11 µg/mL (≈ 0.354 µM) and 0.23 µg/mL (≈ 0.741 µM).
For `CCc1ccc(C(=O)NN2CCc3c(Br)ccc(Br)c3C2)cc1` [Redda-EVK-I-079, N-(5,8-Dibromo-3,4-dihydroisoquinolin-2(1H)-yl)-4-ethylbenzamide] the same measures were 2.34 µg/mL (≈ 5.34 µM), 0.84 µg/mL (≈ 1.92 µM) and 1.71 µg/mL (≈ 3.9 µM).
As to `CCc1ccc(C(=O)NN2CCc3ccccc3C2)cc1` [Redda-GM-3-121, N-(3,4-Dihydroisoquinolin-2(1H)-yl)-4-ethylbenzamide], the results for the IC50 (in experiment [1]; in the experiment with Ishikawa cells; in experiment [2]) were 0.43 µg/mL (≈ 1.53 µM), 0.01 µg/mL (≈ 0.0357 µM) and 0.37 µg/mL (≈ 1.32 µM), respectively.
For `CCCc1ccc(C(=O)NN2CCc3ccccc3C2)cc1` [Redda-GM-3-122, N-(3,4-Dihydroxyisoquinolin-2(1H)-yl)-4-propylbenzamide], the IC50 in experiment [1] turned out to be 3.71 µg/mL (≈ 12.6 µM); with Ishikawa cells, 0.75 µg/mL (≈ 2.55 µM); in experiment [2], 3.26 µg/mL (≈ 11.1 µM).
Taken in the same sequence, the figures for `O=C(NN1CCc2ccccc2C1)c1ccc(Br)cc1` [Redda-GM-3-135, 4-Bromo-N-(3,4-dihydroisoquinolin-2(1H)-yl)benzamide] were 0.7 µg/mL (≈ 2.11 µM), 0.02 µg/mL (≈ 0.0604 µM) and 4.34 µg/mL (≈ 13.1 µM).
For `O=C(NN1CCc2ccccc2C1)c1ccc(C(F)(F)F)cc1` [Redda-GM-3-143, N-(3,4-Dihydroisoquinolin-2-(1H)-yl)-4-(trifluoromethyl)benzamide] the same measures were 3.15 µg/mL (≈ 9.83 µM), 0.5 µg/mL (≈ 1.56 µM) and 4.85 µg/mL (≈ 15.1 µM).
For `CCCCc1ccc(C(=O)NN2CCc3ccccc3C2)cc1` [Redda-GM-3-156, 4-Butyl-N-(3,4-dihydrozyisoquinolin-2(1H)-yl)benzamide] the same measures were 3.05 µg/mL (≈ 9.89 µM), 0.96 µg/mL (≈ 3.11 µM) and 7.03 µg/mL (≈ 22.8 µM).
For the compound `O=C(NN1CCc2ccccc2C1)c1nc2ccccc2s1` [Redda-GM-3-177, N-(3,4-Dihydroisoquinolin-2-(1H)-yl)benzo[d]thiazole-2-carboxamide], the IC50 in experiment [1] is 15 µg/mL (≈ 48.5 µM); with Ishikawa cells, 8.98 µg/mL (≈ 29 µM); in experiment [2] it was 13.1 µg/mL (≈ 42.4 µM).
On to `CC(C)(C)c1ccc(C(=O)NN2CCc3ccc(O)cc3C2)cc1` [Redda-GM-4-40, 4-(tert-Butyl)-N-(7-hydroxy-3,4-dihydroisoquinolin-2(1H)-yl)benzamide], for which the IC50 stood at 2.3 µg/mL (≈ 7.09 µM) in experiment [1], 0.95 µg/mL (≈ 2.93 µM) in the experiment with Ishikawa cells and 4.7 µg/mL (≈ 14.5 µM) in experiment [2].
Taken in the same sequence, the figures for `CCc1ccc(C(=O)NN2CCc3ccc(O)cc3C2)cc1` [Redda-GM-4-53, 4-Ethyl-N-(7-hydroxy-3,4-dihydroisoquinolin-2-(1H)-yl)benzamide] were 0.2 µg/mL (≈ 0.675 µM), 0.08 µg/mL (≈ 0.27 µM) and 0.13 µg/mL (≈ 0.439 µM).
Taken in the same sequence, the figures for `CCc1ccc(C(=O)NN2CCc3c(Br)cccc3C2)cc1` [Redda-GM-4-62, N-(5-Bromo-3,4-dihyroisoquinolin-2(1H)-yl)-4-ethylbenzamide] were 3.5 µg/mL (≈ 9.74 µM), 1.15 µg/mL (≈ 3.2 µM) and 6.01 µg/mL (≈ 16.7 µM).

As usually defined, the IC50 is the concentration that gives 50% inhibition. A high value points to weaker potency in that assay.
